In patent publication US20250134683A1, “MICRO-NANO MEDICAL STENT FOR DIRECTIONAL, QUANTITATIVE AND TIMED RELEASE OF DRUG AND PREPARATION METHOD THEREOF” (GUANGDONG UNIVERSITY OF TECHNOLOGY, priority 2023, published 2025):

Assay: sequential release of drugs from core-shell nano-disordered electrospun fiber structure
Assay type: physicochemical
Details: composite electrospun layer of Example 1; roxithromycin in shell layer fiber, human epidermal growth factor in core layer fiber
Description: Moreover, the transmission electron microscopic image of the core-shell nano-disordered electrospun fiber structure in the composite electrospun layer prepared in Example 1 is shown in FIG. 3. […] The coaxial electrospinning realizes the sequential and timed release of the two drugs in the same electrospun layer. Further, the electrospun layer can be prepared by triaxial electrospinning or multiaxial electrospinning process, which has a core-shell structure of three core layers or multi-core layers, thereby achieving the sequential and timed release of three or more drugs in the same electrospun layer.

CC[C@H]1OC(=O)[C@H](C)[C@@H](O[C@H]2C[C@@](C)(OC)[C@@H](O)[C@H](C)O2)[C@H](C)[C@@H](O[C@@H]2O[C@H](C)C[C@H](N(C)C)[C@H]2O)[C@](C)(O)C[C@@H](C)/C(=N\OCOCCOC)[C@H](C)[C@@H](O)[C@]1(C)O [roxithromycin]
order of drug release from core-shell fiber: released in advance
